Where a name gives a salt, the structure may show the parent alone. Read-outs that look alike come from different tables or passages of the source.
Key:
[1] = target: hPAD4 (Homo sapiens, UniProt Q9UM07); assay: PAD4 inhibition assay, RapidFire mass spectrometry (hPAD4 RFMS); type: biochemical
Description: Compounds of the present invention were assayed as inhibitors of PAD4 using the assay protocol described below.
Compounds were solubilised in 100% DMSO to achieve 100 mM final compound concentration. Compound stock solutions were stored at RT. A series of dilutions were prepared in DMSO and mixed 8 times with 20 μL, mixing volume. Final assay conditions were as follows:
Assay buffer (as aforementioned): 100 mM Tris-HCl (pH 7.6), 2 mM DTT, 1 mM CaCl2
Final concentrations: • 100 nM hPAD4 enzyme • 50 μM (8-fold sub-Km) substrate peptide • 0.5% DMSO
Total incubation time: 65 mins at 37° C.
Stop solution: 40 μl 5% TCA in ACN
0.25 μL of compound solution was added to 10 μL of 200 nM PAD4 in assay buffer (100 mM Tris-HCl pH 7.6, 2 mM DTT). After 5 mins, 10 μL of 100 μM of substrate in buffer (100 mM Tris-HCl pH 7.6, 2 mM DTT, 2 mM CaCl2) was added and the reaction incubated for 60 mins at 37 ° C. The enzymatic reaction was quenched by addition of 40 μl of 5% TCA in ACN (1.7% TCA final concentration) stop solution. Arginine containing substrate and citrulline containing product (+1 Da mass shift) were subjected to solid phase extraction on Agilent RapidFire (RF) 300 system and detected on a coupled, triple quadrupole Agilent 6460 QQQ mass spectrometry (MS) device under application of multiple reaction monitoring (MRM) for quantitation.

[2] = target: mPAD4 (Mus musculus, UniProt Q9Z183); assay: PAD4 inhibition assay, RapidFire mass spectrometry (mPAD4 RFMS); type: biochemical
[3] = 100 nM hPAD4 enzyme, 50 μM substrate peptide, 65 mins at 37° C., read-out: hPAD4 RFMS IC50
[4] = pIC50=-log(IC50), read-out: hPAD4 RFMS pIC50 (converted)
[5] = pIC50=-log(IC50), read-out: mPAD4 RFMS pIC50 (converted)

hPAD4, sequence (Q9UM07 whole entry): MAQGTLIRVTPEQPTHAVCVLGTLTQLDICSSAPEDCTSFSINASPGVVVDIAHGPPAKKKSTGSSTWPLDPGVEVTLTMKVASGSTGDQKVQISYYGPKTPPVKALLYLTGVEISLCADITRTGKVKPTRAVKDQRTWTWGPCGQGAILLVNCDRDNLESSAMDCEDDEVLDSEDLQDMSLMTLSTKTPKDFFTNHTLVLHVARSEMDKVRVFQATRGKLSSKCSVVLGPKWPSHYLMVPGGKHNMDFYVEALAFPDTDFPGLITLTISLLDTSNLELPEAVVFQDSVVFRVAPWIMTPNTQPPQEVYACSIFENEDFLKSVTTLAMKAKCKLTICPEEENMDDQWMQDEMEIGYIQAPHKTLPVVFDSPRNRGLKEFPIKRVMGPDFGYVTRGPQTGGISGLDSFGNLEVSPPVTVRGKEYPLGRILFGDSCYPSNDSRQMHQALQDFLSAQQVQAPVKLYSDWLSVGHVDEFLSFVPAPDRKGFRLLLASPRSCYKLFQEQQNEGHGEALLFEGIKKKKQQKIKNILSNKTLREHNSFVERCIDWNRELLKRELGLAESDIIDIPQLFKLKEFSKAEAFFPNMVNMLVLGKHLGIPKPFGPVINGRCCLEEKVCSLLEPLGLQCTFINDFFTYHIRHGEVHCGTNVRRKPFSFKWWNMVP
mPAD4, sequence (Q9Z183 whole entry): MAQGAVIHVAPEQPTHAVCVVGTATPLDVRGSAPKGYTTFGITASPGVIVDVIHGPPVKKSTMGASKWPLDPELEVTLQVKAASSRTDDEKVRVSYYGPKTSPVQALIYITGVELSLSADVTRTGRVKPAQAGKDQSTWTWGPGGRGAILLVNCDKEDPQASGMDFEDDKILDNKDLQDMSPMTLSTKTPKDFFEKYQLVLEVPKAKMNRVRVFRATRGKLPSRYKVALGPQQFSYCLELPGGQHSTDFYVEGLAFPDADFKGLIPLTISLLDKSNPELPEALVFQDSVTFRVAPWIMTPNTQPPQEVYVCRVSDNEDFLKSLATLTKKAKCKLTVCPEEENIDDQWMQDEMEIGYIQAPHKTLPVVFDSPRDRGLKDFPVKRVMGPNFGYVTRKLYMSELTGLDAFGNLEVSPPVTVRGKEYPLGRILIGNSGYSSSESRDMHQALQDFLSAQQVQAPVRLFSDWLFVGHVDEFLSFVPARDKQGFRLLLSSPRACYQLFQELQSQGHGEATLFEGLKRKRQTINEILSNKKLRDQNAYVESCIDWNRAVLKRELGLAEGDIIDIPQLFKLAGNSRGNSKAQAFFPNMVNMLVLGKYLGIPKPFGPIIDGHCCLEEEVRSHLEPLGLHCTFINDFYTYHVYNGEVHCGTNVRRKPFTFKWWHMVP

| SMILES | IC50 [1, 3] [µM] | IC50 [1, 4] [µM] | IC50 [2, 5] [µM] | IC50 ([2]; read-out: mPAD4 RFMS IC50) [µM] | hPAD4 RFMS pIC50 ([1]; pIC50=-log(IC50)) |
| --- | --- | --- | --- | --- | --- |
| CCn1c(-c2cc3ccc(OC)nc3n2CC2CC2)nc2cc(C(=O)N3CCC[C@@H](N)C3)cnc21 [Compound I-16] | ≤ 1 | ≤ 1 | ≤ 1 | ≤ 1 |  |
| CCn1c(-c2nc3cc(C(=O)N4C[C@H]5CC[C@@H]4[C@@H]5N)cnc3n2CCOC)cc2ccc(OC)nc21 [Compound I-48] | ≤ 1 | ≤ 1 | 1 to 10 | 1 to 5 |  |
| Cn1c(-c2cc3cccnc3n2CC2CC2)nc2cc(C(=O)N3CCC4CCNC4C3)cnc21 (stereo not drawn) [Compound I-8, 2-[1-(cyclopropylmethyl)-1H-pyrrolo[2,3-b]pyridin-2-yl]-3-methyl-6-{octahydro-1H-pyrrolo[2,3-c]pyridine-6-carbonyl}-3H-imidazo[4,5-b]pyridine hydrochloride] | 5 to 10 | 1 to 10 |  |  |  |
| CCn1c(-c2nc3cc(C(=O)N4CCC[C@@H](N)C4)cnc3n2CCOC)cc2ccc(OC)nc21 [Compound I-49] | 5 to 10 | 1 to 10 | 1 to 10 | 1 to 5 |  |
| Cn1c(-c2cc3ccc(C(F)(F)F)nc3n2CC2CC2)nc2cc(C(=O)N3C[C@H]4CC[C@@H]3[C@@H]4N)cnc21 [Compound I-52] | ≤ 1 | ≤ 1 | ≤ 1 | ≤ 1 |  |
| CCn1c(-c2nc3cc(C(=O)N4CCC[C@@H](N)C4)cnc3n2CCOC)cc2cccnc21 [Compound I-42] | ≥ 10 | 10 to 100 | 1 to 10 | 1 to 5 |  |
| N[C@@H]1[C@@H]2CC[C@H]1N(C(=O)c1cnc3c(c1)nc(-c1cc4cccnc4n1CC1CC1)n3CC(F)F)C2 [Compound I-54] | ≤ 1 | ≤ 1 | ≤ 1 | ≤ 1 |  |
| Cn1c(-c2cc3cc(F)c(F)cc3n2CC2CC2)nc2cc(C(=O)N3CCC[C@@H](N)C3)cnc21 [Compound I-30] | 1 to 5 | 1 to 10 | ≤ 1 | ≤ 1 |  |
| COc1ccc2cc(-c3nc4cc(C(=O)N5C[C@H]6CC[C@@H]5[C@@H]6N)cnc4n3C[C@H]3C[C@@](C)(OC)C3)n(CC3CC3)c2n1 [Compound I-53] | ≤ 1 | ≤ 1 | ≤ 1 | ≤ 1 |  |
| Cn1c(-c2cc3cccnc3n2CC2CC2)nc2cc(C(=O)N3CC[C@@H]4CCN[C@@H]4C3)cnc21 (single isomer, unassigned) [Compound I-10, hydrochloride] | 1 to 5 | 1 to 10 | 1 to 10 | 5 to 10 |  |
| Cn1c(-c2cc3cccnc3n2CC2CC2)nc2cc(C(=O)N3C[C@H]4CC[C@@H]3[C@@H]4N)cnc21 [Compound I-41] | ≤ 1 | ≤ 1 | ≤ 1 | ≤ 1 |  |
| Cn1c(-c2cc3cccnc3n2CC(F)(F)F)nc2cc(C(=O)N3CCC[C@@H](N)C3)cnc21 [Compound I-5] | ≥ 10 | 10 to 100 |  |  |  |
| Cn1c(-c2cc3cccnc3n2CC2CC2)nc2cc(C(=O)N3CC[C@@H]4CCN[C@@H]4C3)cnc21 [Compound I-26] | 1 to 5 | 1 to 10 | 1 to 10 | 5 to 10 |  |
| Cn1c(-c2cc3cccnc3n2CC(F)(F)F)nc2cc(C(=O)N3CC[C@@H]4CCN[C@@H]4C3)cnc21 [Compound I-21] | ≥ 10 |  |  |  | E/F |
| CCn1c(-c2nc3cc(C(=O)N4CCC[C@@H](N)C4)cnc3n2CC)cc2cccnc21 [Compound I-4] | 5 to 10 | 1 to 10 | 1 to 10 | 1 to 5 |  |
| COCCn1c(-c2cc3cccnc3n2CC2CC2)nc2cc(C(=O)N3CCC[C@@H](N)C3)cnc21 [Compound I-46] | 1 to 5 | 1 to 10 | 1 to 10 | 1 to 5 |  |
| Cn1c(-c2cc3cccnc3n2CC2CC2)nc2cc(C(=O)N3CCC[C@@H](N)C3)cnc21 [Compound I-7] | 1 to 5 | 1 to 10 | ≤ 1 | ≤ 1 |  |

| SMILES | IC50 [1, 3] [µM] | IC50 [1, 4] [µM] | IC50 [2, 5] [µM] | IC50 ([2]; read-out: mPAD4 RFMS IC50) [µM] | hPAD4 RFMS pIC50 ([1]; pIC50=-log(IC50)) |
| --- | --- | --- | --- | --- | --- |
| CC1CCC(N)CN1C(=O)c1cnc2c(c1)nc(-c1cc3cccnc3n1CC1CC1)n2C (stereo not drawn) [Compound I-32] | 1 to 5 | 1 to 10 | 1 to 10 | 5 to 10 |  |
| Cn1c(-c2cc3cccnc3n2CC2CC2)nc2cc(C(=O)N3CCC4CCNC4C3)cnc21 (stereo not drawn) [Compound I-24] | 5 to 10 |  |  |  |  |
| Cn1c(-c2cc3cccnc3n2CC(F)(F)F)nc2cc(C(=O)N3CCC4CCNC4C3)cnc21 (stereo not drawn) [Compound I-19] | ≥ 10 |  |  |  |  |
| CCn1c(-c2nc3cc(C(=O)N4C[C@H]5CC[C@@H]4[C@@H]5N)cnc3n2C[C@H]2C[C@@](C)(OC)C2)cc2ccc(OC)nc21 [Compound I-51] | ≤ 1 | ≤ 1 | ≤ 1 | ≤ 1 |  |
| Cn1c(-c2cc3cccnc3n2CC(F)(F)F)nc2cc(C(=O)N3CC[C@H]4CCN[C@H]4C3)cnc21 [Compound I-3] | ≥ 10 |  |  |  |  |
| Cn1c(-c2cc3cccnc3n2CC(F)(F)F)nc2cc(C(=O)N3CCC4CCNC4C3)cnc21 (stereo not drawn) [Compound I-6] | ≥ 10 | 10 to 100 |  |  |  |
| Cn1c(-c2cc3cccnc3n2CC(C)(F)F)nc2cc(C(=O)N3CCC[C@@H](N)C3)cnc21 [Compound I-11] | 5 to 10 | 1 to 10 | 1 to 10 | 5 to 10 |  |
| Cn1c(-c2cc3cccnc3n2CC2CC2)nc2cc(C(=O)N3CC[C@H]4CCN[C@H]4C3)cnc21 (single isomer, unassigned) [Compound I-9, hydrochloride] | ≥ 10 | 10 to 100 |  |  |  |
| COc1ccc2cc(-c3nc4cc(C(=O)N5C[C@H]6CC[C@@H]5[C@@H]6N)cnc4n3C)n(CC3CC3)c2n1 [Compound I-44] | ≤ 1 | ≤ 1 | ≤ 1 | ≤ 1 |  |
| COCCn1c(-c2cc3ccc(OC)nc3n2CC2CC2)nc2cc(C(=O)N3C[C@H]4CC[C@@H]3[C@@H]4N)cnc21 [Compound I-47] | ≤ 1 | ≤ 1 | ≤ 1 | ≤ 1 |  |
| CCn1c(-c2cc3cccnc3n2CC2CC2)nc2cc(C(=O)N3CCC[C@@H](N)C3)cnc21 [Compound I-22] | 1 to 5 | 1 to 10 | ≤ 1 | ≤ 1 |  |
| Cn1c(-c2cc3cccnc3n2CC(F)(F)F)nc2cc(C(=O)N3CC[C@@H]4CCN[C@@H]4C3)cnc21 [Compound I-1] | ≥ 10 | 10 to 100 |  |  |  |
| Cn1c(-c2cc3cccnc3n2CC2CC2)nc2cc(C(=O)N3C[C@@H](N)C[C@H](F)C3)cnc21 [Compound I-13] | 1 to 5 | 1 to 10 | ≤ 1 | ≤ 1 |  |
| Cn1c(-c2cc3cccnc3n2CC(F)(F)F)nc2cc(C(=O)N3CC[C@H]4CCN[C@H]4C3)cnc21 [Compound I-20] | ≥ 10 | 10 to 100 |  |  |  |
| Cn1c(-c2cc3cccnc3n2CC2CC2)nc2cc(C(=O)N3CC[C@H]4CCN[C@H]4C3)cnc21 [Compound I-25] | ≥ 10 | 10 to 100 |  |  |  |
| CCn1c(-c2nc3cc(C(=O)N4C[C@H]5CC[C@@H]4[C@@H]5N)cnc3n2CCOC)cc2cccnc21 [Compound I-43] | 1 to 5 | 1 to 10 | 1 to 10 | 1 to 5 |  |
| CO[C@]1(C)C[C@H](Cn2c(-c3cc4cccnc4n3CC3CC3)nc3cc(C(=O)N4C[C@H]5CC[C@@H]4[C@@H]5N)cnc32)C1 [Compound I-50] | ≤ 1 | ≤ 1 | ≤ 1 | ≤ 1 |  |

From patent US20170166592A1, “AZA-BENZIMIDAZOLE INHIBITORS OF PAD4” (Padlock Therapeutics, Inc., priority 2015, published 2017)
